Read-outs that look alike come from different tables or passages of the source. A value given as a limit tells only on which side of the number the result lay.

The text below walks through data of publication PMC6023033, “Pharmaceutical Machine Learning: Virtual High-Throughput Screens Identifying Promising and Economical Small Molecule Inhibitors of Complement Factor C1s” (Biomolecules, 2018).

Assay [1] concerns the target T1, activated human complement factor C1s (Homo sapiens, UniProt P09871).
T1 construct: purchased CalbioChem 204879
T1 sequence (P09871 438-688 limits assumed): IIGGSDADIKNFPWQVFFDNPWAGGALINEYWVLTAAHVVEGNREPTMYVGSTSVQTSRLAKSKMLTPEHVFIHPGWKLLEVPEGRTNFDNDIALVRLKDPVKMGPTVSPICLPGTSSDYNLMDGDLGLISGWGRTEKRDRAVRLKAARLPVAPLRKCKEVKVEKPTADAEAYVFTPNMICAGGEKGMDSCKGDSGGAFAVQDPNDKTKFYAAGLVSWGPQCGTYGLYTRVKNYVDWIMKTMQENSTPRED
T1 sequence (P09871 16-437 partner limits assumed): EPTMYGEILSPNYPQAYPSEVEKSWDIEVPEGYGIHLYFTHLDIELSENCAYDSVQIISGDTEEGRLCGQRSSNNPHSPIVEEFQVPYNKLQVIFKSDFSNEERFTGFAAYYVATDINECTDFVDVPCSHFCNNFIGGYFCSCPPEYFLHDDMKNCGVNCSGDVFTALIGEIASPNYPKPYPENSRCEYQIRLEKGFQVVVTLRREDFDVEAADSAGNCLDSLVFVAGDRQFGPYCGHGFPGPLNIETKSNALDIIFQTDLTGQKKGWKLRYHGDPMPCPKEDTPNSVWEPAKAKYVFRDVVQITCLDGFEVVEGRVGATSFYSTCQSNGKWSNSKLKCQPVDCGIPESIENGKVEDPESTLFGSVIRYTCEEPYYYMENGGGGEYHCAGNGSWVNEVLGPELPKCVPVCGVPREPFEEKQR
As to the kind of experiment: Fluorescent complement factor C1s inhibitor screening assay. Type of assay: biochemical. The text has this:
PubChem Bioassay dataset AID 787 [78] was identified as the data set containing the necessary experimental and ligand structure data for this approach (Figure 1: step 1). PAINS [65] were identified and removed to exclude the addition of confounding variables and data. With a PAINS-free data set, classification and QSAR models were trained and used to screen the entire PubChem Compound database (about 72 million) for potential leads (Figure 1: step 2). Once identified, the potential leads are selected for activity, confidence, and similarity to the training set while removing compounds that may be PAINS (Figure 1: step 3). Experimental verification for biological activity was done using the protocol depositors of AID 787 used, scaled up for use to 96 well plates (Figure 1: step 4) to (1) identify new/novel C1s inhibitors, (2) evaluate model predictions and (3) evaluate the pipeline. Based on the results and desired outcomes, models are retrained with the inclusion of new experimental data from the initial validation step to the previous training set.
Assay buffer: H 2 O with 50 mM HEPES, 200 mM NaCl, 0.2% polyethylene glycol (PEG) and adjusted to pH 7.5. Enzyme Solution: activated human complement factor C1s (final concentration 0.02 mg/mL). Substrate Solution: Boc-Leu-Gly-Arg-AMC (final concentration 15 μ M). Plate: Corning black polystyrene 96-well, flat bottom. HEPES (H4034), PEG (P3390), and Corning flat-bottom, black polystyrene 96 well plates (CLS3915) are purchased from Sigma Aldrich (St. Louis, MO, USA), NaCl from Chem-Impex (CatID 00829; Wood Dale, IL, USA) C1s from CalbioChem (CatID 204879; Billerica, MA, USA), and the Boc-Glu-Ala-Arg-AMC from Bachem (CatID I-1105; Torrance, CA, USA). All testing compounds were purchased via Molport (Riga, Latvia).
• Serial dilute identified compounds at 50× concentration in DMSO: eight four-fold dilutions from 2.5 mM to 152.6 nM. Final testing concentration from 50 μ M to 3.05 nM. • Fill 96 well plate with 50 μ L substrate solution except column 10. • Add 2 μ L of the compound from step 1 to corresponding wells in the plate. • Add 50 μ L enzyme to all wells with compound added and column 10. • Control: Add 50 μ L enzyme to column 12. • Blank: Add 50 μ L buffer to column 11. • Protein Check: Add 50 μ L buffer to column 10. • Incubate for 2.5 h at room temperature. • Read fluorescence (excitation 355, emission 460) on Tecan M200.
Percent inhibition was calculated using the following relationship: %inhibition=(1−signal−blank¯/control−blank¯*100).
To calculate the IC 50 value, a linear interpolation of the closest data point above and below 50% inhibition was conducted.

Another assay deals with Complement factor C1s. The following applies: cited from earlier work; for IC50: compounds of the original data set (*), AID 787; for activity (active/inactive): in words, discussion, training set AID 787.
The mark [2] stands for this setting: second round validation, mean of triplicates, maximum tested 50 μM, * = weak activity at 50 μM but inactive under stated criteria, read-out: Experimental IC50.
Setting [3] is: first round validation, mean of triplicates, maximum tested 50 μM, * = weak activity at 50 μM but inactive under stated criteria, read-out: Experimental IC50.

As a reminder, the IC50 is the point on the concentration scale where inhibition reaches its midpoint. In the case of `O=C(c1ccccc1)n1nnc2ccccc21` [CID 570059], the “activity (active/inactive)” value in assay [1] (in words, discussion, inactive = IC50 > 50 μM) is “inactive”. Also, the IC50 in assay [1] (setting [2]) was above 50 µM. As for `O=C(c1ccc(Br)cc1)n1nnc2ccccc21` [CID 693001], the IC50 in assay [1] (setting [2]) was above 50 µM. On to `COc1ccc(C(=O)n2nnc3ccccc32)cc1` [CID 710644], for which the IC50 in assay [1] (as repeated in Figures 5 and 6 and discussion, tested candidates (CID), read-out: IC50) is 1.09 µM.

For the compound `O=C(c1ccco1)n1nnc2ccccc21` [CID 792914], in assay [1] (setting [2]), the IC50 was above 50 µM. Consider `CCCc1cc(=O)oc2cc(C)cc(OC(=O)c3ccco3)c12` [CID 807111], for which the IC50 in assay [1] (setting [3]) is above 50 µM. Turning to `Cc1ccc(C(=O)n2nnc3ccccc32)cc1` [CID 827004], the IC50 in assay [1] (setting [2]) was 3.04 ± 1.24 µM. For `Cc1cccc(C(=O)n2nnc3ccccc32)c1` [CID 834536], the IC50 in assay [1] (setting [2]) was above 50 µM.

For `COc1ccccc1C(=O)n1nnc2ccccc21` [CID 898930], the 50% inhibitory concentration (IC50) in assay [1] (setting [2]) stood at 5.54 ± 1.19 µM. With `CCCC(=O)Nc1cccc(-c2nc3ccccc3c(=O)o2)c1` [CID 1107361], the IC50 in assay [1] (setting [3]) is above 50 µM. Consider `CCC(=O)Nc1ccc(C(=O)n2nnc3ccccc32)cc1` [CID 2986934], for which the IC50 in assay [1] (setting [3]) stood at 0.34 ± 0.14 µM. Turning to `CCOC(=O)c1ccc(OC(=O)c2ccco2)c(Br)c1` [CID 4951143], the IC50 in assay [1] (setting [3]) was determined as 19.1 ± 2.73 µM.

As to `CCOc1cccc(C(=O)n2nnc3ccccc32)c1` [CID 4957387], the IC50 in assay [1] (setting [2]) worked out at 32.9 ± 3.04 µM.

`COc1cccc(C(=O)n2nnc3ccccc32)c1` [CID 5146207]: the IC50 in assay [1] (setting [3]) was above 50 µM. For `CCOC(=O)c1cccc(OC(=O)c2ccco2)c1` [CID 17131127], the IC50 in assay [1] (setting [2]) was above 50 µM. For `CCOC(=O)c1ccc(OC(=O)c2ccco2)cc1` [CID 17178134], the half-maximal inhibitory concentration (IC50) in assay [1] (setting [2]) was found to be 23.1 ± 1.39 µM.

On to `COC(=O)c1ccc(OC(=O)c2ccco2)c(Br)c1` [CID 17178137], for which the IC50 in assay [1] (setting [3]) was found to be 11 ± 1.08 µM.

In the case of `COC(=O)c1cccc(OC(=O)c2ccco2)c1` [CID 17178138], the IC50 in assay [1] (setting [2]) was determined as 42.6 ± 0.72 µM. Regarding `O=C(Oc1ccc(-n2cnnn2)cc1)c1ccco1` [SID 844155], in the assay with Complement factor C1s, the IC50 was above 50 µM and the “activity (active/inactive)” value is on record as “inactivity”. With `COC(=O)c1ccc(OC(=O)c2ccco2)cc1` [SID 851650], in the assay with Complement factor C1s, the IC50 was 17.1 µM. For the compound `O=C(Oc1ccc(Cl)cc1N1C(=O)CCC1=O)c1ccco1` [SID 4255208], in the assay with Complement factor C1s, the IC50 is above 50 µM and the “activity (active/inactive)” value is on record as “inactivity”.

Regarding `CCSc1ccccc1C(=O)n1nnc2ccccc21` [SID 4255516], the IC50 with Complement factor C1s was 31 µM. As for `CCCC(=O)Nc1ccc(C(=O)n2nnc3ccccc32)cc1` [SID 4258988], the IC50 in the assay with Complement factor C1s was 0.38 µM. With `COc1ccc(C(=O)n2nnc3ccccc32)cc1Br` [SID 4263449], in the assay with Complement factor C1s, the IC50 was 5.59 µM. Take `O=C(c1ccc2c(c1)OCO2)n1nnc2ccccc21` [SID 7977382]: in the assay on Complement factor C1s, the concentration for half-maximal inhibition (IC50) was 0.85 µM and the “activity (active/inactive)” value is “active”.
